Results: paper PMC12530850, “Synthesis, antidiabetic evaluation, and computational modeling of 3-acetyl-8-ethoxy coumarin derived hydrazones and thiosemicarbazones” (RSC Advances, 2025)
Where “and” joins values, the source holds several entries; their conditions need not be identical. Equal values may be shown once.

Tests used:
[1] = target: α-amylase; test: α-amylase inhibition assay (starch substrate); assay type: biochemical; settings: pH 6.9, 35 °C
Description: A 0.4 M starch combination was made in 80 mL of NaOH solution and heated to 80 °C for 30 minutes in order to create the starch. After that, 10 μL of various chemical concentrations were combined with 35 μL of starch solution and 35 μL of phosphate buffer (pH 6.9), and the mixture was incubated for 25 minutes at 35 °C. Finally, the final combination was reincubated for 25 minutes after 20 μL of the α-amylase solution was added. Each tube was filled with 50 μL of HCl (0.1 M) to complete the reactions. At 580 nm, the absorbance was measured. The amount of αamylase needed to release one μmol of reducing sugar, which is estimated to be glucose per minute at pH 6.9 and 40 °C, is known as one α-amylase unit.[52,53]

[2] = Antioxidant assay (metal chelating, Fe^2+ binding at 522 nm); settings: Fe^2+ chelating
Description: Fe^2+ chelating ability of novel compounds was predicted according to Dinis et al.[54] with slight modification. Fe^2+-binding capacity of novel compounds was spectrophotometrically recorded at 522 nm. This study was conducted based on previous papers.[55,56]
In this section, we studied the metal chelating method, one of the antioxidant methods for toxicity. To stop the metal ions from serving as catalysts of lipid oxidation, metal-chelating antioxidants are thus added to food products. […] In this study, EDTA was used as a standard.

With `CCOc1cccc2cc(/C(C)=N/NC(=O)c3ccc(Br)cc3)c(=O)oc12` [Compound 3c, (E)-4-Bromo-N′-[1-(8-ethoxy-2-oxo-2H-chromen-3-yl)ethylidene]benzohydrazide] as the molecule, how does the IC50 [1] read?
The IC50 was 209 ± 12.4 nM.

What about the “Metal chelating (IC50)” value [2] of the same molecule?
Its value is greater than 100 µg/mL.

For `CCOc1cccc2cc(/C(C)=N/NC(=O)c3c[nH]c4ccccc34)c(=O)oc12` [Compound 3f, (E)-N′-[1-(8-Ethoxy-2-oxo-2H-chromen-3-yl)ethylidene]-1H-indole-3-carbohydrazide], which IC50 [1] is on record?
Its IC50 is 425 ± 11.1 nM.

What about the “Metal chelating (IC50)” value [2] of the same molecule?
Its value is greater than 100 µg/mL.

What does the source list for `CCOc1cccc2cc(/C(C)=N/NC(=O)c3cnccn3)c(=O)oc12` [Compound 3e, (E)-N′-[1-(8-Ethoxy-2-oxo-2H-chromen-3-yl)ethylidene]pyrazine-2-carbohydrazide]?
IC50 [1]: 479 ± 8.7 nM; Metal chelating (IC50) [2]: >100 µg/mL

For `COc1cccc2cc(/C(C)=N/NC(=S)NCc3ccc(C)cc3)c(=O)oc12` [Compound 5c, (E)-2-[1-(8-Methoxy-2-oxo-2H-chromen-3-yl)ethylidene]-N-(4-methylbenzyl) hydrazine-1-carbothioamide], which IC50 [1] is on record?
The IC50 was 128 ± 2.82 nM.

What about the “Metal chelating (IC50)” value [2] of the same molecule?
Its value is 43.55 ± 0.10 µg/mL.

Which IC50 [1] does the source give for `COc1cccc2cc(/C(C)=N/NC(=S)NCc3ccccc3)c(=O)oc12` [Compound 5a, (E)-N-Benzyl-2-[1-(8-methoxy-2-oxo-2H-chromen-3-yl)ethylidene]hydrazine-1-carbothioamide] here?
The IC50 was 264.5 ± 2.64 nM.

What about the “Metal chelating (IC50)” value [2] of the same molecule?
The value was greater than 100 µg/mL.

Which IC50 [1] does the source give for `CCOc1cccc2cc(/C(C)=N/NC(=O)c3ccc(F)cc3)c(=O)oc12` [Compound 3b, (E)-N′-[1-(8-Ethoxy-2-oxo-2H-chromen-3-yl)ethylidene]-4-fluorobenzohydrazide] here?
Its IC50 is 252 nM and 159 nM.

What about the “Metal chelating (IC50)” value [2] of the same molecule?
The value was greater than 100 µg/mL.

For `O=C(O)CN(CCN(CC(=O)O)CC(=O)O)CC(=O)O` [EDTA, Ethylenediaminetetraacetic acid, reference compound], which “Metal chelating (IC50)” value [2] is on record?
Its value is 66.82 ± 0.40 µg/mL.

Which results are given for `CCOc1cccc2cc(/C(C)=N/NC(=O)c3ccccc3OC)c(=O)oc12` [Compound 3d, (E)-N′-[1-(8-Ethoxy-2-oxo-2H-chromen-3-yl)ethylidene]-2-methoxybenzohydrazide]?
IC50 [1]: 177 ± 8.25 nM; Metal chelating (IC50) [2]: >100 µg/mL

For `COc1cccc2cc(/C(C)=N/NC(=S)Nc3ccc(C)cc3C)c(=O)oc12` [Compound 5b, (E)-N-(2,4-Dimethylphenyl)-2-[1-(8-methoxy-2-oxo-2H-chromen-3-yl)ethylidene] hydrazine-1-carbothioamide], which IC50 [1] is on record?
Its IC50 is 198 ± 6.04 nM.

And the “Metal chelating (IC50)” value [2]?
The value was 58.06 ± 0.08 µg/mL.

With `CCOc1cccc2cc(/C(C)=N/NC(=O)c3cccs3)c(=O)oc12` [Compound 3a, (E)-N′-[1-(8-Ethoxy-2-oxo-2H-chromen-3-yl)ethylidene]thiophene-2-carbohydrazide] as the molecule, how does the IC50 [1] read?
The IC50 was 430 ± 7.6 nM.

What about the “Metal chelating (IC50)” value [2] of the same molecule?
Its value is greater than 100 µg/mL.

With `COc1cccc2cc(/C(C)=N/NC(N)=S)c(=O)oc12` [Compound 5e, (E)-2-[1-(8-Methoxy-2-oxo-2H-chromen-3-yl)ethylidene]hydrazine-1-carbothioamide] as the molecule, how does the IC50 [1] read?
Its IC50 is 146 ± 7.35 nM.

And the “Metal chelating (IC50)” value [2]?
Its value is 35.96 ± 0.52 µg/mL.

What does the source list for `CCOc1cccc2cc(/C(C)=N/NC(=O)c3ccco3)c(=O)oc12` [Compound 3g, (E)-N′-[1-(8-Ethoxy-2-oxo-2H-chromen-3-yl)ethylidene]furan-2-carbohydrazide]?
IC50 [1]: 189 ± 9.65 nM; Metal chelating (IC50) [2]: >100 µg/mL

Which results are given for `COc1cccc2cc(/C(C)=N/NC(=S)NCC(C)C)c(=O)oc12` [Compound 5d, (E)-N-Isobutyl-2-[1-(8-methoxy-2-oxo-2H-chromen-3-yl)ethylidene]hydrazine-1-carbothioamide]?
IC50 [1]: 237 ± 3.43 nM; Metal chelating (IC50) [2]: 50.38 ± 0.04 µg/mL
